Data from patent US20260374754A1, “N-((ISOQUINOLIN-6-YL)METHYL)-1H-PYRAZOLE-4-CARBOXAMIDE DERIVATIVES AS PLASMA KALLIKREIN INHIBITORS FOR THE TREATMENT OF HEREDITARY ANGIODEMA” (Takeda Pharmaceutical Company Limited, priority 2022, published 2026).
Structures can show the parent of a compound that is named as a salt.

Legend:
[1] = biological target: human activated kallikrein enzyme (Homo sapiens, UniProt P03952); assay: Inhibition of human activated plasma kallikrein, fluorogenic PFR-AMC substrate, 500 pM enzyme format; type: biochemical; conditions: 500 pM activated kallikrein; 300 μM PFR-AMC; 30 min preincubation; 10 min room temperature; pH 7.5; read-out: Primary Dose Response Assay: Average EC50
human activated kallikrein enzyme, sequence (P03952 391-638 limits assumed): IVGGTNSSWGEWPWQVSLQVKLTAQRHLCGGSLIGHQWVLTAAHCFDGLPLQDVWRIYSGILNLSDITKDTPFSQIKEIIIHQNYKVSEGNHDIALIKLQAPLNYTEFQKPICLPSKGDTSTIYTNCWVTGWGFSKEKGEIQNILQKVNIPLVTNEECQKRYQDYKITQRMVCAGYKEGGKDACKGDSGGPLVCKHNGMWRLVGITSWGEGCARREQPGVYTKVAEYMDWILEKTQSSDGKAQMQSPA
human activated kallikrein enzyme, sequence (P03952 20-390 partner limits assumed): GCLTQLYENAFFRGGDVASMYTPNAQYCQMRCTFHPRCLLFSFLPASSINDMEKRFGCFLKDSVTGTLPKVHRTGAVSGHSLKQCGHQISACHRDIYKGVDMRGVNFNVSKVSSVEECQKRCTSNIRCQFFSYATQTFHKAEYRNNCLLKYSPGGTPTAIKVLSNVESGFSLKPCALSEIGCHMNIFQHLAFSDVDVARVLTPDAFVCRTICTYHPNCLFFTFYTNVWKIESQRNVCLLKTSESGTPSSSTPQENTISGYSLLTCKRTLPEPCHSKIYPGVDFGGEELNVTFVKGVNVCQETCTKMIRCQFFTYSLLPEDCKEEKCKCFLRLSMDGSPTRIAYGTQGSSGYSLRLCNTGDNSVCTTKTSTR
Summary of the method: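 500 pM activated kallikrein preincubated 30 min at room temperature with inhibitors in pH 7.5 Tris/EDTA/NaCl buffer with PEG-400 and Triton X-100. Reaction started with 300 μM PFR-AMC, run 10 min at room temperature; AMC fluorescence read at ex 380/em 460 nm.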

[2] = biological target: T1, plasma kallikrein (Homo sapiens, UniProt P03952); assay: Neat Human Plasma Assay (Fluorogenic Peptide), contact pathway-activated (FXIIa) plasma; type: biochemical; conditions: human citrated plasma 78% final; 10 nM human FXIIa; PFR-AMC substrate; 5 minutes; room temperature
T1 construct: PFR-AMC substrate
T1 sequence (P03952 20-638): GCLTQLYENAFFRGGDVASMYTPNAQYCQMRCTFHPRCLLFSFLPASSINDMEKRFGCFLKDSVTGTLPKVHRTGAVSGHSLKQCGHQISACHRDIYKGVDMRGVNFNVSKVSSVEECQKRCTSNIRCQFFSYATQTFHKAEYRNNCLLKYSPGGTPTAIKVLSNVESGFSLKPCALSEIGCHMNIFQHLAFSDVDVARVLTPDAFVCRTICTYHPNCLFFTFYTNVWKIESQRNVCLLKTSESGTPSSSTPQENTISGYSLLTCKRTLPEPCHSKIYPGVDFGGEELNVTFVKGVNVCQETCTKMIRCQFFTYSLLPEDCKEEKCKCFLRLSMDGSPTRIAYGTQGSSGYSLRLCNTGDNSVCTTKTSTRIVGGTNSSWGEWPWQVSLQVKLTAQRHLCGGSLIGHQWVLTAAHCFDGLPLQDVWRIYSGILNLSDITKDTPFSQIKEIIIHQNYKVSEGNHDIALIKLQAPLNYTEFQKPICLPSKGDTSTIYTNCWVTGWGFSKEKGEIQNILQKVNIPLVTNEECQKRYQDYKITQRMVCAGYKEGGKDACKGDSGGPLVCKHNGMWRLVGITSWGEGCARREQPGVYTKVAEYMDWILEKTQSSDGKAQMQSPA
Procedure: To analyze inhibition of plasma kallikrein in an ex vivo setting, the potency of compounds was measure in contact pathway-activated plasma assays. In a fluorogenic peptide substrate assay, test compounds dissolved in DMSO were added to sodium citrate collected human or rat plasma in a 96-well microplate. Alternatively, citrated plasma was collected from rats administered the compounds orally or by IV. 10 nM of human FXIIa (Enzyme Research Laboratories) diluted in PKa buffer (20 mM Tris-HCl, pH 7.5, 150 mM NaCl, 1 mM EDTA, 0.1% PEG-8000, and 0.1% Triton X-100) was added to the plasma, followed by the […] of the profluorescent, synthetic plasma kallikrein substrate PFR-AMC (also diluted in PKa buffer). Final plasma concentration in the reaction was 78%. Fluorescence was immediately monitored by excitation/emission wavelengths of 360 nm/480 nm respectively over a period of 5 minutes in a microplate reader. The resulting linear increase in fluorescence emission (reflecting PKa proteolysis of PFR-AMC substrate) was fit to extract a proteolytic rate (fluorescent units over time), and this rate was subsequently plotted against compound inhibitor concentration. Resulting plots were fit to a standard 4-parameter IC50/IC90 equation to determine min/max values, IC50/90, and slope. All experimental steps were performed at room temperature.

For `Cc1cc2c(N)nccc2c(C)c1CNc1cc2c(cn1)nnn2Cc1cn2cc(C3CC3)ccc2n1` [Example 501, 6-(((1-((6-cyclopropylimidazo[1,2-a]pyridin-2-yl)methyl)-1H-[1,2,3]triazolo[4,5-c]pyridin-6-yl)amino)methyl)-5,7-dimethylisoquinolin-1-amine], the EC50 [1] was < 1 nM and the IC90 [2] was ≤ 1000 nM.
`Cc1c(CNc2cc(OCc3cn4cc(C5CC5)ccc4n3)ncn2)c(C2(C)CC2)cc2c(N)nccc12` [Example 390, 6-(((6-((6-cyclopropylimidazo[1,2-a]pyridin-2-yl)methoxy)pyrimidin-4-yl)amino)methyl)-5-methyl-7-(1-methylcyclopropyl)isoquinolin-1-amine] was tested, and the EC50 [1] was < 1 nM and the IC90 [2] was > 5000 nM.
`Cc1cc2c(N)nccc2c(C)c1CNc1nccc2cn(Cc3cn4nc(C5CC5)ccc4n3)nc12` [Example 265, 6-(((2-((6-cyclopropylimidazo[1,2-b]pyridazin-2-yl)methyl)-2H-pyrazolo[3,4-c]pyridin-7-yl)amino)methyl)-5,7-dimethylisoquinolin-1-amine] was tested, and the EC50 [1] was < 1 nM and the IC90 [2] was ≤ 1000 nM.
For `Cc1c(CNc2cc(OCc3ccc(Cn4cccn4)cc3)ncn2)ccc2c(N)nccc12` [Example 533, 6-(((6-((4-((1H-pyrazol-1-yl)methyl)benzyl)oxy)pyrimidin-4-yl)amino)methyl)-5-methylisoquinolin-1-amine], the EC50 [1] was 1 to 10 nM and the IC90 [2] was > 5000 nM.
With `Cc1cc2c(N)nccc2c(C)c1CNc1cc(NCc2ccc(Cn3cccn3)cc2)ncn1` [Example 340, N^4-(4-((1H-pyrazol-1-yl)methyl)benzyl)-N^6-((1-amino-5,7-dimethylisoquinolin-6-yl)methyl)pyrimidine-4,6-diamine] the EC50 [1] was < 1 nM and the IC90 [2] was > 5000 nM.
In the case of `Cc1cc2c(N)nccc2c(C)c1CNc1cc(OCc2ccc(Cn3cccn3)cc2)cnn1` [Example 432, 6-(((5-((4-((1H-pyrazol-1-yl)methyl)benzyl)oxy)pyridazin-3-yl)amino)methyl)-5,7-dimethylisoquinolin-1-amine], the EC50 [1] is reported as < 1 nM and the IC90 [2] is reported as 1000 to 5000 nM.
With `Cc1cc2c(N)nccc2c(C)c1CNc1cc(OCc2cn3cc(C4CC4)cc(C#N)c3n2)ncn1` [Example 258, 2-(((6-(((1-amino-5,7-dimethylisoquinolin-6-yl)methyl)amino)pyrimidin-4-yl)oxy)methyl)-6-cyclopropylimidazo[1,2-a]pyridine-8-carbonitrile] the EC50 [1] was < 1 nM and the IC90 [2] was > 5000 nM.
For `Cc1cnc2ccc(COc3cnnc(NCc4c(C)cc5c(N)nccc5c4C)c3)cc2c1` [Example 416, 5,7-dimethyl-6-(((5-((3-methylquinolin-6-yl)methoxy)pyridazin-3-yl)amino)methyl)isoquinolin-1-amine], the EC50 [1] was < 1 nM and the IC90 [2] was 1000 to 5000 nM.
For `Cc1cc2c(N)nccc2c(C)c1CNc1cc(OCc2ccc3ncc(C4CC4)cc3c2)ccn1` [Example 239, 6-(((4-((3-cyclopropylquinolin-6-yl)methoxy)pyridin-2-yl)amino)methyl)-5,7-dimethylisoquinolin-1-amine], the EC50 [1] was 1 to 10 nM and the IC90 [2] was > 5000 nM.
With `Cc1cc2c(N)nccc2c(C)c1CNc1cc(OCc2cnc3ccc(C4CC4)cc3c2)ncn1` [Example 387, 6-(((6-((6-cyclopropylquinolin-3-yl)methoxy)pyrimidin-4-yl)amino)methyl)-5,7-dimethylisoquinolin-1-amine] the EC50 [1] was 1 to 10 nM and the IC90 [2] was > 5000 nM.
`Cc1cc2c(N)nccc2c(C)c1CNc1cc(NCc2cc3cc(C4CC4)ccn3n2)ncn1` [Example 244] was tested, and the EC50 [1] was < 1 nM and the IC90 [2] was 1000 to 5000 nM.
With `Cc1cc2c(N)nccc2c(C)c1CNc1cc(OCc2cn3cc(C4CC4)ccc3n2)c(Cl)cn1` [Example 280, 6-(((5-chloro-4-((6-cyclopropylimidazo[1,2-a]pyridin-2-yl)methoxy)pyridin-2-yl)amino)methyl)-5,7-dimethylisoquinolin-1-amine] the EC50 [1] was 1 to 10 nM and the IC90 [2] was > 5000 nM.
`Cc1cc2c(N)nccc2c(C)c1CNc1cc(NCc2ccc(Cn3cccn3)cc2)c(C(F)(F)F)nn1` [Example 451, N^5-(4-((1H-pyrazol-1-yl)methyl)benzyl)-N^3-((1-amino-5,7-dimethylisoquinolin-6-yl)methyl)-6-(trifluoromethyl)pyridazine-3,5-diamine] was tested, and the EC50 [1] was < 1 nM and the IC90 [2] was 1000 to 5000 nM.
`Cc1cc2c(N)nccc2c(C)c1CNc1cc(OCc2ccc3ncc(C4CC4)cc3c2)ncn1` [Example 386, 6-(((6-((3-cyclopropylquinolin-6-yl)methoxy)pyrimidin-4-yl)amino)methyl)-5,7-dimethylisoquinolin-1-amine] was tested, and the EC50 [1] was 1 to 10 nM and the IC90 [2] was > 5000 nM.
In the case of `Cc1cc2c(N)nccc2c(C)c1CNC(=O)c1cnn(Cc2ccc3ncc(Cl)cc3c2)c1` [Example 89, N-((1-amino-5,7-dimethylisoquinolin-6-yl)methyl)-1-((3-chloroquinolin-6-yl)methyl)-1H-pyrazole-4-carboxamide], the EC50 [1] is reported as < 1 nM and the IC90 [2] is reported as ≤ 1000 nM.
In the case of `Cc1cc2c(N)nccc2c(C)c1CNC(=O)c1cnn(Cc2ccc(CC(=O)N3CC4CC4C3)cc2)c1` (centres unmarked) [Example 222, 1-(4-(2-(3-azabicyclo[3.1.0]hexan-3-yl)-2-oxoethyl)benzyl)-N-((1-amino-5,7-dimethylisoquinolin-6-yl)methyl)-1H-pyrazole-4-carboxamide], the EC50 [1] is reported as < 1 nM and the IC90 [2] is reported as 1000 to 5000 nM.
`Cc1cc2c(N)nccc2c(C)c1CNc1cc(SCc2cn3cc(C4CC4)ccc3n2)ncn1` [Example 290, 6-(((6-(((6-cyclopropylimidazo[1,2-a]pyridin-2-yl)methyl)thio)pyrimidin-4-yl)amino)methyl)-5,7-dimethylisoquinolin-1-amine] was tested, and the EC50 [1] was < 1 nM and the IC90 [2] was 1000 to 5000 nM.
For `Cc1cc2c(N)nccc2c(C)c1CNc1cc(Cc2cn3cc(C4CC4)ccc3n2)ncn1` [Example 403, 6-(((6-((6-cyclopropylimidazo[1,2-a]pyridin-2-yl)methyl)pyrimidin-4-yl)amino)methyl)-5,7-dimethylisoquinolin-1-amine], the EC50 [1] was < 1 nM and the IC90 [2] was 1000 to 5000 nM.
For `Cc1cc2c(N)nccc2c(C)c1CNc1nccc2nn(Cc3cn4cc(C5CC5)ccc4n3)cc12` [Example 267, 6-(((2-((6-cyclopropylimidazo[1,2-a]pyridin-2-yl)methyl)-2H-pyrazolo[4,3-c]pyridin-4-yl)amino)methyl)-5,7-dimethylisoquinolin-1-amine], the EC50 [1] was < 1 nM and the IC90 [2] was ≤ 1000 nM.
`Cc1cnc2ccc(Cn3cc(C(=O)NCc4c(C)cc5c(N)nccc5c4C)cn3)cc2c1` [Example 115, N-((1-amino-5,7-dimethylisoquinolin-6-yl)methyl)-1-((3-methylquinolin-6-yl)methyl)-1H-pyrazole-4-carboxamide] was tested, and the EC50 [1] was < 1 nM and the IC90 [2] was ≤ 1000 nM.
`Cc1cc2c(N)nccc2c(C)c1CNc1cc(NCc2ccc(Cn3ccccc3=O)cc2)cnn1` [Example 236, 1-(4-(((6-(((1-amino-5,7-dimethylisoquinolin-6-yl)methyl)amino)pyridazin-4-yl)amino)methyl)benzyl)pyridin-2(1H)-one] was tested, and the EC50 [1] was < 1 nM and the IC90 [2] was ≤ 1000 nM.
In the case of `Cc1cc2c(N)nccc2c(C)c1CNc1cc(NCc2cn3cc(Cl)ccc3n2)ncn1` [Example 313, N^4-((1-amino-5,7-dimethylisoquinolin-6-yl)methyl)-N^6-((6-chloroimidazo[1,2-a]pyridin-2-yl)methyl)pyrimidine-4,6-diamine, formic acid salt], the EC50 [1] is reported as < 1 nM and the IC90 [2] is reported as > 5000 nM.
